Results on two molecules are retold here after patent US5039808A, “Therapeutically active cyclopropyl substituted compound” (priority 1988, dated 1991).

The test system of series [1] is gastric acid secretion. Put plainly: Inhibition of Gastric Acid Secretion in the Conscious Dog (histamine stimulated). It counts as in vivo, Harrier dogs of either sex. The protocol: (§1) The potency for inhibition of acid secretion has been measured in the male rat and the dog, both intravenously and intraduodenally. When it comes to relevance of the animal test data for potency of a given compound in man for the present type of compounds, it is believed that potency in man will correspond to a level somewhere between what is measured in the male rat and what is measured in the dog.
(§2) Harrier dogs of either sex were used. They were equipped with a duodenal fistula for the administration of test compounds or vehicle and a cannulated ventricular fistula for the collection of gastric secretions.
Before secretory tests the animals were fasted for about 18 h but water was freely allowed. Gastric acid secretion was stimulated by a 4 h infusion of histamine dihydrochloride (12 ml/h) at a dose producing about 80% of the individual maximal secretory response, and gastric juice collected in consecutive 30-min fractions. Test substance or vehicle was given id or iv 1 h after starting the histamine infusion, in a volume of 0.5 ml/kg body weight. The acidity of the gastric juice samples were determined by titration to pH 7.0, and the acid output calculated. The acid output in the collection periods after administration of test substance or vehicle were expressed as fractional responses, setting the acid output in the fraction preceding administration to 1.0. Percentage inhibition was calculated from fractional responses elicited by test compound and vehicle. ED50 -values were obtained by graphical interpolation on log dose - response curves, or estimated from single-dose experiments under the assumption of the same slope of the dose-response curve for all test compounds. All results reported are based on acid output 2 h after dosing.

A short description of series [2]: Chemical stability in aqueous buffer solution. The format is physicochemical. To be noted: low concentration. As for the experimental part:
The chemical stability of various compounds of the invention has been followed kinetically at low concentration at 37°C. in aqueous buffer solution at different pH values. The results in Table 3 show the half life (t 1/2) at pH 7, that is the time period after which half the amount of the original compound remains unchanged.

The subject of series [3] is gastric acid secretion. The series is described as follows: Inhibition of Gastric Acid Secretion in the Conscious Male Rat (pentagastrin and carbachol stimulated). It counts as in vivo, Male rats of the Sprague-Dawley strain. The settings on record: second hour after administration. The protocol:
as §1
Male rats of the Sprague-Dawley strain were used. They were equipped with cannulated fistulae in the stomach (lumen) and the upper part of the duodenum, for collection of gastric secretions and administration of test substances, respectively. A fourteen days recovery period after surgery was allowed before testing commenced.
Before secretory tests, the animals were deprived of food but not water for 20 h. The stomach was repeatedly washed through the gastric cannula, and 6 ml of Ringer-Glucose given s.c. Acid secretion was stimulated with a infusion during 3.5 h (1.2ml/h, s.c.) of pentagastrin and carbachol (20 and 110 nmol/kg h, respectively), during which time gastric secretions were collected in 30-min fractions. Test substances or vehicle were given iv or id at 90 min after starting the stimulation, in a volume of 1 ml/kg. Gastric juice samples were titrated to pH 7.0 with NaOH, 0.1 mol/L, and acid output calculated as the product of titrant volume and concentration. Further calculations were based on group mean responses from 4-5 rats. The acid output during the periods after administration of test substances or vehicle were expressed as fractional responses, setting the acid output in the 30-min period preceding administration to 1.0. Percentage inhibition was calculated from the fractional responses elicited by test compound and vehicle. ED50 -values were obtained from graphical interpolation on log dose-response curves, or estimated from single-dose experiments assuming a similar slope for all dose-response curves. An estimation of the bioavailability was obtained by calculating the ratio ED50 iv/ED50 id. The results reported are based on gastric acid secretion during the second hour after drug/vehicle administration.

Series [4] in a line: Bioavailability in the dog, AUC method. It counts as in vivo, Harrier dogs of either sex. The settings on record: id vs iv, plasma up to 3 h, extrapolated to infinite time, read-out: Bioavailability measured by the AUC-method F%, Dog. As for the experimental part: Bioavailability is assessed by calculating the quotient between the area under plasma concentration (AUC) curve following introduodenal (id) administration and intravenous (iv) administration from the rat or the dog. Low, therapeutically relevant doses, were used. This method is scientifically recognized as valid for assessing bioavailability (see for instance: M. Rowland and T. N. Tozer, Clinical Pharmacokinetics, 2nd ed., Lea & Febiger, London 1989, p 42).
as §2
Blood samples for the analysis of test compound concentration in plasma were taken at intervals up to 3 h after dosing. Plasma was separated and frozen within 30 min after collection. AUC (area under the plasma concentration - time curve), extrapolated to infinite time, was calculated by the linear trapezoidal rule. The systemic bioavailability (F%) after id administration was calculated as 100 × (AUCid /AUCiv).

The nature of series [5]: Bioavailability in the Male Rat, AUC method. It counts as in vivo, Male adult rats of the Sprague-Dawley strain. The settings on record: blood, 4 umol/kg, 4 μmol/kg id and iv, up to 4 h, extrapolated to infinity, read-out: Bioavailability measured by the AUC-method F%, Rat. An excerpt: The results from tests on two different animal species, rat and dog, vary in regard to measured level of bioavailability for the same compound. We believe that the rat is the more relevant species for bioavailability testing. This is based on our belief that liver metabolism has the most predominant impact upon bioavailability, and that the liver metabolic pattern in man for this type of compounds is quite similar to that of the male rat (more so than of the female rat and the dog). Moreover, test results of bioavailability in the male rat will tend to give a broader "spread" compared with the test results in the dog, and thus the male rat model will give more clear differences in bioavailability between different compounds. […]
Bioavailability is assessed by calculating the quotient between the area under plasma concentration (AUC) curve following introduodenal (id) administration and intravenous (iv) administration from the rat or the dog. […]
The area under the blood concentration vs time curve, AUC, was determined by the linear trapezoidal rule and extrapolated to infinity by dividing the last determined blood concentration by the elimination rate constant in the terminal phase. The systemic bioavailability (F%) following intraduodenal administration was calculated as [formula]

The nature of series [6]: Rough Screening Model for bioavailability: ratio ED50 iv/ED50 id of acid secretion inhibition in the rat. The arrangement: species or system Male rats of the Sprague-Dawley strain. The settings on record: in vivo, ratio of ED50 values, read-out: "Bioavailability" measured by the Rough Screening Model, Rat ED50 iv/ED50 id. As for the experimental part:
Since the bioavailability model described above is time and labour intensive, and requires a large number of plasma analyses, also a rough screening model, based on relative potencies to inhibit acid secretion, has been used (see for instance: A. Goth, Medical Pharmacology, 7the ed., C. V. Mosby Company, Saint Louis 1974, p 19). Thus, the ratio (called "Bioavailability" in Table 3) between the ED50 at intravenous administration and the ED50 at intraduodenal administration was calculated.
Before secretory tests, the animals were deprived of food but not water for 20 h. The stomach was repeatedly washed through the gastric cannula, and 6 ml of Ringer-Glucose given s.c. Acid secretion was stimulated with a infusion during 3.5 h (1.2ml/h, s.c.) of pentagastrin and carbachol (20 and 110 nmol/kg h, respectively), during which time gastric secretions were collected in 30-min fractions. […] Gastric juice samples were titrated to pH 7.0 with NaOH, 0.1 mol/L, and acid output calculated as the product of titrant volume and concentration. […] The acid output during the periods after administration of test substances or vehicle were expressed as fractional responses, setting the acid output in the 30-min period preceding administration to 1.0. Percentage inhibition was calculated from the fractional responses elicited by test compound and vehicle. […]

With `[O-][S+](Cc1cc(OCC2CC2)ccn1)c1nc2cc(F)ccc2[nH]1` (stereo not drawn) [Example 1, 5-fluoro-2-[[(4-cyclopropyl-methoxy-2-pyridinyl)methyl]sulfinyl]-1H-benzimidazole], the ED50 is 1 µmol/kg in the series on gastric acid secretion [1] (Canis lupus familiaris, dog, route id, acid output 2 h after dosing); 2.2 µmol/kg in the series with gastric acid secretion [3] (route id, read-out: Inhibition of acid secretion, Rat ED50, id); 1.2 µmol/kg with gastric acid secretion [3] (route iv, read-out: Inhibition of acid secretion, Rat ED50, iv). Further, the “inhibition of acid secretion” value is on record as 35% in the series on gastric acid secretion [1] (Dog 1, 1 μmol/kg, iv) and 98% with gastric acid secretion [1] (Dog 3, 2 μmol/kg, iv). In addition, in the series with gastric acid secretion [1] (Dog 2, 1 μmol/kg, iv), the “inhibition of acid secretion (in words)” value is “no effect”. Also, the “Chemical stability at pH 7, half-life (t 1/2)” value in series [2] (37°C) amounted to 23 h. In addition, the half-life in series [2] (pH 7, 37°C, read-out: Chemical stability at pH 7, half-life (t 1/2) (converted)) is 23 h. Further, the bioavailability in series [4] is 80%; in series [5], 82%; in series [6], 55%.
Consider `CC(C)Oc1ccnc(C[S+]([O-])c2nc3cc(F)ccc3[nH]2)c1` (stereo not drawn) [Ref., 5-fluoro-2-[[(4-isopropoxy-2-pyridinyl)-methyl]sulfinyl]-1H-benzimidazole, reference compound], for which the “inhibition of acid secretion” value came to 95% in the series with gastric acid secretion [1] (Dog 4, 3 μmol/kg, id (footnote to id column)) and 98% with gastric acid secretion [1] (Dog 5, 3 μmol/kg, id (footnote to id column)). The “Inhibition of acid secretion, Rat ED50, id” value in the series on gastric acid secretion [3] (route id) was found to be 4.0 µmol/kg. In addition, in the series with gastric acid secretion [3] (route iv), the “Inhibition of acid secretion, Rat ED50, iv” value was determined as 1.8 µmol/kg.
